Source: patent US10597388B2, “Pyridazinone herbicides” (FMC CORPORATION, priority 2014, dated 2020)

Tests used:
Assay type in all cases: in vivo
[1] = test system: field bindweed (Convolvulus arvensis); assay: Test E greenhouse herbicide test, pre- and postemergence
Method in brief: (§1)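 Visual ratings, 0 for no effect up to 100 for complete control, were taken relative to controls 14 to 21 d after greenhouse treatment. Applications used a surfactant-containing non-phytotoxic solvent formulation, sprayed either preemergence on silt loam-sown seed or postemergence on 1- to 4-leaf plants 2-18 cm tall in peat-based potting medium.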

[2] = test system: nightshade (eastern black nightshade, Solanum ptycanthum); assay: as above; conditions: Preemergence
Method in brief: as §1

[3] = test system: corn (Zea mays); assay: as above
Method in brief: as §1

[4] = test system: momingglory (Ipomoea coccinea); assay: as above; conditions: Preemergence
Method in brief: as §1

[5] = test system: soybean (Glycine max); assay: as above
Method in brief: as §1

[6] = test system: horseweed (Conyza canadensis); assay: as above
Method in brief: as §1

[7] = test system: arrowleaf sida (Sida rhombifolia); assay: as above
Method in brief: as §1

[8] = test system: goosegrass (Eleusine indica); assay: as above; conditions: Preemergence
Method in brief: as §1

[9] = test system: surinam grass (Brachiaria decumbens); assay: as above; conditions: Preemergence
Method in brief: as §1

[10] = test system: pigweed, palmer (palmer pigweed, Amaranthus palmeri); assay: as above
Method in brief: as §1

[11] = test system: buckwheat, wild (wild buckwheat, Polygonum convolvulus); assay: Test D controlled growth environment herbicide test, pre- and postemergence; conditions: for Buckwheat, Wild plant response rating / Plant response rating (scale of 0 to 100), Buckwheat, Wild: 31 g ai/ha
Excerpt: Seeds of plant species selected from bluegrass (annual bluegrass, Poa annua), blackgrass (Alopecurus myosuroides), Canada thistle (Cirsium arvense), canarygrass (Phalaris minor), chickweed (common chickweed, Stellaria media), geranium, cutleaf (cutleaf geranium, Geranium dissectum), galium (catchweed bedstraw, Galium aparine), bromegrass, downy (downy bromegrass, Bromus tectorum), field poppy (Papaver rhoeas), field violet (Viola arvensis), foxtail, green (green foxtail, Setaria viridis), deadnettle (henbit deadnettle, Lamium amplexicaule), ryegrass, Italian (Italian ryegrass, Lolium multiflorum), kochia (Kochia scoparia), lambsquarters (Chenopodium album), oilseed rape (Brassica napus), pigweed (Amaranthus retroflexus), chamomile (scentless chamomile, Matricaria inodora), Russian thistle (Salsola kali), speedwell (bird's-eye speedwell, Veronica persica), barley, spring (spring barley, Hordeum vulgare), wheat, spring (spring wheat, Triticum aestivum), buckwheat, wild (wild buckwheat, Polygonum convolvulus), mustard, wild (wild mustard, Sinapis arvensis), oat, wild (wild oat, Avena fatua), radish, wild (wild radish, Raphanus raphanistrum), windgrass (Apera spica-venti), barley, winter (winter barley, Hordeum vulgare), and wheat, winter (winter wheat, Triticum aestivum) were planted into a silt loam soil and treated preemergence with test chemicals formulated in a non-phytotoxic solvent mixture which included a surfactant.
At the same time, these species were planted in pots containing Redi-Earth® planting medium (Scotts Company, 14111 Scottslawn Road, Marysville, Ohio 43041) comprising spaghnum peat moss, vermiculite, wetting agent and starter nutrients and treated with postemergence applications of the test chemicals formulated in the same manner. Plants ranged in height from 2 to 18 cm (1- to 4-leaf stage). Treated plants and controls were maintained in a controlled growth environment for 14 to 21 d after which time all species were compared to controls and visually evaluated. Plant response ratings, summarized in Table D, are based on a scale of 0 to 100 where 0 is no effect and 100 is complete control. A dash (-) response means no test result.

[12] = 62 g ai/ha, Postemergence, scale 0 to 100 (0 no effect, 100 complete control)
[13] = 62 g ai/ha, Preemergence, scale 0 to 100 (0 no effect, 100 complete control)
[14] = 125 g ai/ha, Postemergence, scale 0 to 100 (0 no effect, 100 complete control)
[15] = 125 g ai/ha, Preemergence, scale 0 to 100 (0 no effect, 100 complete control)
[16] = Postemergence, 16 g ai/ha, visual, scale 0 no effect to 100 complete control
[17] = Postemergence, 31 g ai/ha, visual, scale 0 no effect to 100 complete control
[18] = Preemergence, 16 g ai/ha, scale 0 to 100, 0 no effect, 100 complete control
[19] = Preemergence, 31 g ai/ha, scale 0 to 100, 0 no effect, 100 complete control
[20] = 125 g ai/ha, scale 0 to 100 (0 no effect, 100 complete control)
[21] = 16 g ai/ha, scale 0 to 100, 0 no effect, 100 complete control
[22] = 31 g ai/ha, scale 0 to 100, 0 no effect, 100 complete control
[23] = 62 g ai/ha, scale 0 to 100 (0 no effect, 100 complete control)
[24] = Postemergence, scale 0 to 100 (0 no effect, 100 complete control)
[25] = Postemergence, 125 g ai/ha, visual rating on scale 0 (no effect) to 100 (complete control), 14 to 21 d
[26] = Postemergence, 250 g ai/ha, scale 0 to 100 (0 no effect, 100 complete control)
[27] = Preemergence, 62 g ai/ha, scale 0 to 100 (0 no effect, 100 complete control)
[28] = Preemergence, 125 g ai/ha, scale 0 to 100 (0 no effect, 100 complete control)
[29] = Preemergence, 250 g ai/ha, scale 0 to 100 (0 no effect, 100 complete control)
[30] = postemergence, 62 g ai/ha, scale 0 to 100, 0 no effect, 100 complete control
[31] = 250 g ai/ha, Postemergence, scale 0 to 100 (0 no effect, 100 complete control)
[32] = Preemergence, 250 g ai/ha, visual, scale 0 no effect to 100 complete control
[33] = 250 g ai/ha, visual, scale 0 no effect to 100 complete control

## CCC(=O)Oc1c(C)nn(C)c(=O)c1-c1c(C)sc2ccc(Cl)cc12 [Compound 109]
[1]; [12]
  Plant response rating, Field Bindweed: 95
[1]; [13]
  Plant response rating, Field Bindweed: 40
[1]; [14]
  Plant response rating, Field Bindweed: 90
[1]; [15]
  Plant response rating, Field Bindweed: 80
[1]; [16]
  Plant response rating, Field Bindweed: 75
[1]; [17]
  Plant response rating, Field Bindweed: 80
[1]; [18]
  Plant response rating, Field Bindweed: 0
[1]; [19]
  Plant response rating, Field Bindweed: 0
[2]; [20]
  Plant response rating, Nightshade: 98
[2]; [21]
  Plant response rating, Nightshade: 25
[2]; [22]
  Plant response rating, Nightshade: 65
[3]; [12]
  Plant response rating, Corn: 10
[3]; [13]
  Plant response rating, Corn: 0
[3]; [14]
  Plant response rating, Corn: 20
[3]; [15]
  Plant response rating, Corn: 0
[3]; [16]
  Plant response rating, Corn: 0
[3]; [17]
  Plant response rating, Corn: 0
[3]; [18]
  Plant response rating, Corn: 0
[3]; [19]
  Plant response rating, Corn: 0
[4]; [20]
  Plant response rating, Morningglory: 65
[4]; [21]
  Plant response rating, Morningglory: 0
[4]; [22]
  Plant response rating, Morningglory: 0
[5]; [14]
  Plant response rating, Soybean: 20
[5]; [15]
  Plant response rating, Soybean: 0
[5]; [16]
  Plant response rating, Soybean: 0
[5]; [17]
  Plant response rating, Soybean: 0
[5]; [18]
  Plant response rating, Soybean: 0
[5]; [19]
  Plant response rating, Soybean: 0
[6]; [12]
  Plant response rating, Horseweed: 90
[6]; [13]
  Plant response rating, Horseweed: 100
[6]; [14]
  Plant response rating, Horseweed: 85
[6]; [15]
  Plant response rating, Horseweed: 100
[6]; [16]
  Plant response rating, Horseweed: 60
[6]; [17]
  Plant response rating, Horseweed: 80
[6]; [18]
  Plant response rating, Horseweed: 0
[6]; [19]
  Plant response rating, Horseweed: 100
[7]; [12]
  Plant response rating, Arrowleaf Sida: 60
[7]; [13]
  Plant response rating, Arrowleaf Sida: 30
[7]; [14]
  Plant response rating, Arrowleaf Sida: 80
[7]; [15]
  Plant response rating, Arrowleaf Sida: 35
[7]; [16]
  Plant response rating, Arrowleaf Sida: 50
[7]; [17]
  Plant response rating, Arrowleaf Sida: 65
[7]; [18]
  Plant response rating, Arrowleaf Sida: 40
[7]; [19]
  Plant response rating, Arrowleaf Sida: 35
[8]; [23]
  Plant response rating, Goosegrass: 25
[8]; [20]
  Plant response rating, Goosegrass: 50
[8]; [21]
  Plant response rating, Goosegrass: 0
[8]; [22]
  Plant response rating, Goosegrass: 20
[9]; [20]
  Plant response rating, Surinam Grass: 40
[9]; [21]
  Plant response rating, Surinam Grass: 0
[9]; [22]
  Plant response rating, Surinam Grass: 30
[10]; [12]
  Plant response rating, Pigweed, Palmer: 65
[10]; [14]
  Plant response rating, Pigweed, Palmer: 100
[10]; [15]
  Plant response rating, Pigweed, Palmer: 85
[10]; [16]
  Plant response rating, Pigweed, Palmer: 60
[10]; [17]
  Plant response rating, Pigweed, Palmer: 50
[10]; [18]
  Plant response rating, Pigweed, Palmer: 0
[10]; [19]
  Plant response rating, Pigweed, Palmer: 20
[11]; [24]
  Buckwheat, Wild plant response rating: 95
[11]; [25]
  Plant response rating, Buckwheat, Wild: 100
[11]; [26]
  Plant response rating, Buckwheat, Wild: 100
[11]; Preemergence
  Plant response rating (scale of 0 to 100), Buckwheat, Wild: 0
[11]; [27]
  Plant response rating, Buckwheat, Wild: 20
[11]; [28]
  Plant response rating, Buckwheat, Wild: 30
[11]; [29]
  Plant response rating, Buckwheat, Wild: 75
[11]; [30]
  Plant response rating, Buckwheat, Wild: 95

## CC(=O)Oc1c(C)nn(C)c(=O)c1-c1c(C)cc(C)c2ccccc12 [Compound 153]
[1]; [12]
  Plant response rating, Field Bindweed: 90
[1]; [13]
  Plant response rating, Field Bindweed: 100
[1]; [14]
  Plant response rating, Field Bindweed: 100
[1]; [15]
  Plant response rating, Field Bindweed: 100
[1]; [31]
  Plant response rating, Field Bindweed: 95
[1]; [17]
  Plant response rating, Field Bindweed: 80
[1]; [19]
  Plant response rating, Field Bindweed: 90
[1]; [32]
  Plant response rating, Field Bindweed: 100
[2]; [20]
  Plant response rating, Nightshade: 95
[2]; [22]
  Plant response rating, Nightshade: 70
[2]; [33]
  Plant response rating, Nightshade: 100
[3]; [12]
  Plant response rating, Corn: 0
[3]; [13]
  Plant response rating, Corn: 0
[3]; [14]
  Plant response rating, Corn: 0
[3]; [15]
  Plant response rating, Corn: 10
[3]; [31]
  Plant response rating, Corn: 0
[3]; [17]
  Plant response rating, Corn: 0
[3]; [19]
  Plant response rating, Corn: 0
[3]; [32]
  Plant response rating, Corn: 20
[4]; [20]
  Plant response rating, Morningglory: 90
[4]; [22]
  Plant response rating, Morningglory: 85
[4]; [33]
  Plant response rating, Morningglory: 100
[5]; [14]
  Plant response rating, Soybean: 10
[5]; [15]
  Plant response rating, Soybean: 30
[5]; [31]
  Plant response rating, Soybean: 25
[5]; [17]
  Plant response rating, Soybean: 0
[5]; [19]
  Plant response rating, Soybean: 30
[6]; [12]
  Plant response rating, Horseweed: 80
[6]; [13]
  Plant response rating, Horseweed: 100
[6]; [14]
  Plant response rating, Horseweed: 85
[6]; [15]
  Plant response rating, Horseweed: 100
[6]; [31]
  Plant response rating, Horseweed: 85
[6]; [17]
  Plant response rating, Horseweed: 85
[6]; [19]
  Plant response rating, Horseweed: 90
[6]; [32]
  Plant response rating, Horseweed: 100
[7]; [12]
  Plant response rating, Arrowleaf Sida: 50
[7]; [13]
  Plant response rating, Arrowleaf Sida: 70
[7]; [14]
  Plant response rating, Arrowleaf Sida: 40
[7]; [15]
  Plant response rating, Arrowleaf Sida: 60
[7]; [31]
  Plant response rating, Arrowleaf Sida: 40
[7]; [17]
  Plant response rating, Arrowleaf Sida: 40
[7]; [19]
  Plant response rating, Arrowleaf Sida: 50
[7]; [32]
  Plant response rating, Arrowleaf Sida: 75
[8]; [23]
  Plant response rating, Goosegrass: 40
[8]; [20]
  Plant response rating, Goosegrass: 60
[8]; [22]
  Plant response rating, Goosegrass: 40
[8]; [33]
  Plant response rating, Goosegrass: 75
[9]; [20]
  Plant response rating, Surinam Grass: 90
[9]; [22]
  Plant response rating, Surinam Grass: 50
[9]; [33]
  Plant response rating, Surinam Grass: 100
[10]; [12]
  Plant response rating, Pigweed, Palmer: 20
[10]; [14]
  Plant response rating, Pigweed, Palmer: 30
[10]; [15]
  Plant response rating, Pigweed, Palmer: 60
[10]; [31]
  Plant response rating, Pigweed, Palmer: 40
[10]; [17]
  Plant response rating, Pigweed, Palmer: 20
[10]; [19]
  Plant response rating, Pigweed, Palmer: 50
[10]; [32]
  Plant response rating, Pigweed, Palmer: 95
[11]; [24]
  Buckwheat, Wild plant response rating: 95
[11]; [25]
  Plant response rating, Buckwheat, Wild: 100
[11]; [26]
  Plant response rating, Buckwheat, Wild: 100
[11]; Preemergence
  Plant response rating (scale of 0 to 100), Buckwheat, Wild: 40
[11]; [27]
  Plant response rating, Buckwheat, Wild: 60
[11]; [28]
  Plant response rating, Buckwheat, Wild: 85
[11]; [29]
  Plant response rating, Buckwheat, Wild: 85
[11]; [30]
  Plant response rating, Buckwheat, Wild: 95
